From PubChem BioAssay (NCI)
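These data come from cells grown in 96-well plates and exposed to compound for 48 hours at five concentrations. GI50 marks 50% less growth. TGI: total growth inhibition.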

What was measured:
Assay in all cases: NCI anticancer screen, dose series, 48 h
786-0 renal = tested on: 786-0 renal
A498 renal = tested on: A498 renal
A549 NSCLC = tested on: A549 NSCLC
ACHN renal = tested on: ACHN renal
BT-549 breast = tested on: BT-549 breast
CAKI-1 renal = tested on: CAKI-1 renal
CCRF-CEM leukemia = tested on: CCRF-CEM leukemia
COLO 205 colon = tested on: COLO 205 colon
DU-145 prostate = tested on: DU-145 prostate
EKVX NSCLC = tested on: EKVX NSCLC
HCC-2998 colon = tested on: HCC-2998 colon
HCT-116 colon = tested on: HCT-116 colon
HCT-15 colon = tested on: HCT-15 colon
HL-60(TB) leukemia = tested on: HL-60(TB) leukemia
HOP-62 NSCLC = tested on: HOP-62 NSCLC
HOP-92 NSCLC = tested on: HOP-92 NSCLC
HS 578T breast = tested on: HS 578T breast
HT29 colon = tested on: HT29 colon
IGROV1 ovarian = tested on: IGROV1 ovarian
K-562 leukemia = tested on: K-562 leukemia
KM12 colon = tested on: KM12 colon
LOX IMVI melanoma = tested on: LOX IMVI melanoma
M14 melanoma = tested on: M14 melanoma
MALME-3M melanoma = tested on: MALME-3M melanoma
MCF7 breast = tested on: MCF7 breast
MDA-MB-231 breast = tested on: MDA-MB-231 breast
MDA-MB-435 = tested on: MDA-MB-435
MOLT-4 leukemia = tested on: MOLT-4 leukemia
NCI-H226 lung = tested on: NCI-H226 lung
NCI-H23 lung = tested on: NCI-H23 lung
NCI-H460 lung = tested on: NCI-H460 lung
NCI-H522 lung = tested on: NCI-H522 lung
NCI/ADR-RES ovarian = tested on: NCI/ADR-RES ovarian
OVCAR-3 ovarian = tested on: OVCAR-3 ovarian
OVCAR-4 ovarian = tested on: OVCAR-4 ovarian
OVCAR-5 ovarian = tested on: OVCAR-5 ovarian
OVCAR-8 ovarian = tested on: OVCAR-8 ovarian
PC-3 prostate = tested on: PC-3 prostate
RPMI-8226 leukemia = tested on: RPMI-8226 leukemia
RXF 393 renal = tested on: RXF 393 renal
SF-268 CNS = tested on: SF-268 CNS
SF-295 CNS = tested on: SF-295 CNS
SF-539 CNS = tested on: SF-539 CNS
SK-MEL-2 melanoma = tested on: SK-MEL-2 melanoma
SK-MEL-5 melanoma = tested on: SK-MEL-5 melanoma
SK-OV-3 ovarian = tested on: SK-OV-3 ovarian
SN12C renal = tested on: SN12C renal
SNB-19 CNS = tested on: SNB-19 CNS
SNB-75 CNS = tested on: SNB-75 CNS
SR leukemia = tested on: SR leukemia
SW-620 colon = tested on: SW-620 colon
T-47D breast = tested on: T-47D breast
TK-10 renal = tested on: TK-10 renal
U251 CNS = tested on: U251 CNS
UO-31 renal = tested on: UO-31 renal

C=C1C(=O)O[C@H]2[C@H]1CC/C(CNC(=O)Cc1c[nH]c3ccccc13)=C\CC[C@@]1(C)O[C@@H]21
GI50 (786-0 renal): 1.22 µM | TGI (786-0 renal): 4.98 µM | GI50 (A498 renal): 13.8 µM | TGI (A498 renal): 26.9 µM | GI50 (A549 NSCLC): 14.9 µM | TGI (A549 NSCLC): 33.3 µM | GI50 (ACHN renal): 1.11 µM | TGI (ACHN renal): 11.4 µM | GI50 (BT-549 breast): 3.04 µM | TGI (BT-549 breast): 15.8 µM | GI50 (CAKI-1 renal): 4.77 µM | TGI (CAKI-1 renal): 17.1 µM | GI50 (CCRF-CEM leukemia): 0.303 µM | TGI (CCRF-CEM leukemia): 1.02 µM | GI50 (COLO 205 colon): 0.313 µM | TGI (COLO 205 colon): 1.14 µM | GI50 (DU-145 prostate): 0.834 µM | TGI (DU-145 prostate): 12.3 µM | GI50 (EKVX NSCLC): 10.6 µM | TGI (EKVX NSCLC): 22.4 µM | GI50 (HCC-2998 colon): 4 µM | TGI (HCC-2998 colon): 15.5 µM | GI50 (HCT-116 colon): 0.533 µM | TGI (HCT-116 colon): 2.55 µM | GI50 (HCT-15 colon): 1.58 µM | TGI (HCT-15 colon): 13.1 µM | GI50 (HL-60(TB) leukemia): 0.314 µM | TGI (HL-60(TB) leukemia): 1.02 µM | GI50 (HOP-62 NSCLC): 5.06 µM | TGI (HOP-62 NSCLC): 19.7 µM | GI50 (HOP-92 NSCLC): 2.17 µM | TGI (HOP-92 NSCLC): 5.25 µM | GI50 (HS 578T breast): 11.9 µM | TGI (HS 578T breast): 45.5 µM | GI50 (HT29 colon): 0.451 µM | TGI (HT29 colon): 11.1 µM | GI50 (IGROV1 ovarian): 0.833 µM | TGI (IGROV1 ovarian): 9.06 µM | GI50 (K-562 leukemia): 0.337 µM | TGI (K-562 leukemia): 11.1 µM | GI50 (KM12 colon): 8.44 µM | TGI (KM12 colon): 21.6 µM | GI50 (LOX IMVI melanoma): 0.355 µM | TGI (LOX IMVI melanoma): 1.54 µM | GI50 (M14 melanoma): 0.641 µM | TGI (M14 melanoma): 9.8 µM | GI50 (MALME-3M melanoma): 3.42 µM | TGI (MALME-3M melanoma): 7.39 µM | GI50 (MCF7 breast): 0.404 µM | TGI (MCF7 breast): 3.3 µM | GI50 (MDA-MB-231 breast): 3.87 µM | TGI (MDA-MB-231 breast): 17.5 µM | GI50 (MDA-MB-435): 0.862 µM | TGI (MDA-MB-435): 13.4 µM | GI50 (MOLT-4 leukemia): 1.83 µM | TGI (MOLT-4 leukemia): 5.75 µM | GI50 (NCI-H226 lung): 2.42 µM | TGI (NCI-H226 lung): 7.81 µM | GI50 (NCI-H23 lung): 3.54 µM | TGI (NCI-H23 lung): 18.6 µM | GI50 (NCI-H460 lung): 12 µM | TGI (NCI-H460 lung): 29.5 µM | GI50 (NCI-H522 lung): 0.365 µM | TGI (NCI-H522 lung): 1.38 µM | GI50 (NCI/ADR-RES ovarian): 19 µM | TGI (NCI/ADR-RES ovarian): 65.6 µM | GI50 (OVCAR-3 ovarian): 0.386 µM | TGI (OVCAR-3 ovarian): 1.44 µM | GI50 (OVCAR-4 ovarian): 1.74 µM | TGI (OVCAR-4 ovarian): 15.7 µM | GI50 (OVCAR-5 ovarian): 10.2 µM | TGI (OVCAR-5 ovarian): 24.2 µM | GI50 (OVCAR-8 ovarian): 1.12 µM | TGI (OVCAR-8 ovarian): 12.4 µM | GI50 (PC-3 prostate): 6.36 µM | TGI (PC-3 prostate): 21.1 µM | GI50 (RPMI-8226 leukemia): 0.486 µM | TGI (RPMI-8226 leukemia): 3.96 µM | GI50 (RXF 393 renal): 1.3 µM | TGI (RXF 393 renal): 5.65 µM | GI50 (SF-268 CNS): 2.62 µM | TGI (SF-268 CNS): 16.3 µM | GI50 (SF-295 CNS): 13 µM | TGI (SF-295 CNS): 26.6 µM | GI50 (SF-539 CNS): 1.92 µM | TGI (SF-539 CNS): 9.1 µM | GI50 (SK-MEL-2 melanoma): 6.46 µM | TGI (SK-MEL-2 melanoma): 22.2 µM | GI50 (SK-MEL-5 melanoma): 7.32 µM | TGI (SK-MEL-5 melanoma): 20.3 µM | GI50 (SK-OV-3 ovarian): 17.6 µM | TGI (SK-OV-3 ovarian): 31.7 µM | GI50 (SN12C renal): 1.91 µM | TGI (SN12C renal): 18.3 µM | GI50 (SNB-19 CNS): 15 µM | TGI (SNB-19 CNS): 35.2 µM | GI50 (SNB-75 CNS): 12.8 µM | TGI (SNB-75 CNS): 35.5 µM | GI50 (SR leukemia): 0.314 µM | TGI (SR leukemia): 2.84 µM | GI50 (SW-620 colon): 0.352 µM | TGI (SW-620 colon): 1.37 µM | GI50 (T-47D breast): 1.07 µM | TGI (T-47D breast): 8.16 µM | GI50 (TK-10 renal): 0.747 µM | TGI (TK-10 renal): 2.01 µM | GI50 (U251 CNS): 2.52 µM | TGI (U251 CNS): 16.5 µM | GI50 (UO-31 renal): 6 µM | TGI (UO-31 renal): 19.3 µM
